From patent US20120189564A1, “COMPOSITIONS OF VITAMIN C DERIVATIVE AND PORTULACA EXTRACT” (PRESPERSE CORPORATION, priority 2011, published 2012)

Tested on: B16-F10 melanoma cells
Assay: Melanin formation inhibition (without UV stress) in B16-F10 melanoma cells
Format: cell-based
Procedure: Experiments were conducted to evaluate suppression of melanin synthesis using B16 melanoma cells by Portulaca Extract, ASG and Portulaca/ASG blend with and without UV stress at different levels. These experiments were performed to quantify skin whitening effects of the blend versus the individual components of the blend. Test (I)—Melanin Formation Inhibition (without UV Stress) Two sets of B16-F10 melanoma cells (ATCC 6475) were seeded at 6 well multi-plates with 1×10^5 density and cultured in Culbecco's Modified Eagle's Medium (DMEM) supplemented 10% fetal bovine serum (FBS) at 37° C. for 24 hours. The medium was exchanged with fresh DMEM media containing 10% FBS and test samples were added and cultured for 72 hours at 37° C. One set of cultured cells was washed with 2 ml of PBS (phosphate buffered saline) and cells were dissolved by 250 ul of 1N NaOH and melanin content was measured by UV absorbance at 450 nm. The other set of cells was incubated after adding 200 ul of MTT (2.5 mg/ml) at 37° C. for 4 hours. Culture medium was discarded and cells were dissolved for 10 minutes at room temperature by adding 2 ml of DMSO. After the cells were completely dissolved, UV absorbance was measured at 570 nm. […] [table]

O=C1O[C@H]([C@H](O)CO)C(O)=C1O[C@H]1O[C@H](CO)[C@@H](O)[C@H](O)[C@H]1O [ASG, 2-0-α-D-glucopyranosyl-L-ascorbic acid]
melanin formation inhibition (1.2% of ASG, 72 hours, FIGS. 1 and 2): about 20%
melanin formation inhibition (result in words) (B16-F10 cells, concentration series of Table 2): melanin formation inhibition in a dose dependent manner
